Where a SMILES comes first, the peptide text is derived from it.
| SMILES | logP |
| --- | --- |
| NC(=O)c1cccc(Cn2cccn2)c1 | 0.71 |
| CC(C)CC(N)C(=O)NC(CC(C)C)C(=O)NC(CC(C)C)C(=O)N1CCCC1C(=O)O (centres undefined) (H-LLLP-OH; configuration not given here) | -1.18 |
| CCOc1ccc(-n2nnnc2N)cc1 | 1.32 |
| Cc1nccc2c3ccccc3n(C)c12 | 3.01 |
| COC(=O)C=CCn1cnc([N+](=O)[O-])n1 | 0.09 |
| CN1CC(O)N(C(=O)NC(C)(C)C)C1=O (centres undefined) | 1.38 |
| Nc1ccc2cc3ccccc3nc2c1CO | 1.77 |
| CCOC1N=C(c2ccccc2)c2cc(Cl)ccc2N(CCCl)C1=O (centres undefined) | 3.95 |
| Nc1ccn([C@H]2CS[C@@H](CO)O2)c(=O)n1 | -0.93 |
| CCCN(CCCCC(NC(C)=O)C(=O)NCc1ccccc1)C(=O)N(CCCl)N=O (centres undefined) | 1.99 |
| CCc1ccccc1CNc1[nH]cnc2ncnc1-2 | 2.92 |
| CCC(C)C(NC(=O)C(CC(C)C)NC(=O)C(N)CO)C(=O)O (stereo not drawn) (H-Ser-Leu-Ile-OH; configuration not given here) | -1.99 |
| COc1cc(SC)ccc1-c1cn2cccnc2n1 | 2.44 |
| O=C1c2ccccc2-c2nnccc21 | 1.22 |
| CC(C)NCC(O)COc1ccc(NC=O)cc1 (centres undefined) | 0.54 |
| CC12CC(Cl)(Cl)C(CC1(Cl)Cl)C2(CCl)C(Cl)Cl (centres undefined) | 5.49 |
| CCCOC(=O)C=COc1ccccc1 | 3.72 |
| COC(=O)C(C)S(=O)(=O)c1ccc([N+](=O)[O-])cc1 (centres undefined) | 1.06 |
| Cc1coc2cc3oc(=O)ccc3cc12 | 2.47 |
| CCCCNC(=O)N1C(=O)N(C)CC1O (centres undefined) | 1.38 |
| CC1=CCCC(C)C12CCC(C(C)(C)O)C2 (centres undefined) | 4.59 |
| CC(=O)OC1CCCC2(C)CCC(C(C)(C)OC(C)=O)CC12 (centres undefined) | 5.06 |
| Cc1nc2c3c(c(C(=O)O)cn2c1C)CCC(c1ccccc1)O3 (centres undefined) | 4.6 |
| [O-][n+]1ccc(-c2ccccc2)cc1 | 0.93 |

| SMILES | logP |
| --- | --- |
| O=C(C=Cc1ccc([N+](=O)[O-])o1)NN=Cc1ccc([N+](=O)[O-])o1 | 2.79 |
| OCCCCCCNc1ncnc2nc[nH]c12 | 1.14 |
| COc1ccc(C2Cc3c(ccc(Br)c3OC)N(CCN(C)C)C(=O)C2OC(C)=O)cc1 (centres undefined) | 4.4 |
| O=[N+]([O-])c1nccn1CC(O)COCF (centres undefined) | -0.4 |
| CCOC(=O)C1=C(C)NC(C)=C(C(=O)OC)C1c1cc(OC)c(O)c(OC)c1 (centres undefined) | 2.83 |
| Oc1ccccc1CNc1ncnc2nc[nH]c12 | 2.05 |
| CCC(C)C(N)C(=O)NC(Cc1ccc(O)cc1)C(=O)NC(C(=O)O)C(C)C (stereo not drawn) (H-Ile-Tyr-Val-OH; configuration not given here) | -1.77 |
| CC(C)NC(=NC#N)NS(=O)(=O)c1cnccc1NC1CCCC1 | 0.98 |
| CCCCOCCCNc1[nH]cnc2ncnc1-2 | 2.22 |
| CCCc1nc(NC(C)C)nc(N2CCOCC2)n1 | 2.26 |
| CC1CC(N)CN1c1cc2c(cc1F)c(=O)c(C(=O)O)cn2-c1ccc(F)cc1F (centres undefined) | 0.09 |
| Clc1ccc(Cl)c2c1oc1c(Cl)ccc(Cl)c12 | 5.6 |
| CC(C)CC(N)C(=O)N1CCCC1C(=O)O (stereo not drawn) (H-Leu-Pro-OH; configuration not given here) | -1.76 |
| CCCCCCNC1=NS(=O)N=C1NCCSCc1ccc(CN(C)C)o1 (centres undefined) | 3.46 |
| Clc1cccc(N2CCN(CCCOn3nnc4ccccc43)CC2)c1 | 4.2 |
| CCCCC(Nc1ccc([N+](=O)[O-])cc1[N+](=O)[O-])C(=O)O (centres undefined) | 3.25 |
| O=C(O)CCCCCON=C(c1cncnc1)c1cccc(C(F)(F)F)c1 | 3.65 |
| O=C(OC1Cc2c(O)cc(O)cc2OC1c1ccc(O)c(O)c1)c1ccc(O)c(O)c1 (centres undefined) | 2.45 |
| CCCCCCN=C=S | 3.98 |
| O=C(Nc1ccccc1)NC1CC(C(=O)O)Nc2cc(Cl)cc(Cl)c21 (centres undefined) | 3.28 |
| CC(C)c1cccc(O)c(=O)c1 | 1.82 |
| Clc1ccccc1N1CCN(CCn2nnc3ccccc32)CC1 | 3.35 |
| CC(C)NCC(O)COc1ccccc1C1CCCCC1 (centres undefined) | 3.68 |
| CC(C)CC(NC(=O)C(CC(C)C)NC(=O)C(N)CO)C(=O)O (stereo not drawn) (H-Ser-Leu-Leu-OH; configuration not given here) | -2.03 |

| SMILES | logP |
| --- | --- |
| COc1ccc(C2Cc3cc(C(F)(F)F)ccc3N(CCN(C)C)C(=O)C2OC(C)=O)cc1 (centres undefined) | 4.8 |
| CCC(C)C(NC(=O)CNC(=O)C(C)NC(=O)CNC(=O)C(N)Cc1ccccc1)C(=O)O (centres undefined) (H-FGAGI-OH; configuration not given here) | -1.87 |
| Nc1ccc(S(=O)(=O)Nc2cc(Br)cc3[nH]ccc23)cc1 | 2.77 |
| CCOC(=O)c1[nH]cc(-c2ccc(Cl)cc2)c1N1CCOCC1 | 3.9 |
| COc1ccc(C2Cc3cc(C(F)(F)F)ccc3N(CCN(C)C)C(=O)C2NC(C)=O)cc1 (centres undefined) | 3.6 |
| COC(=O)C(C)NP(=O)(OCC1C=CC(n2cc(C)c(=O)[nH]c2=O)O1)Oc1ccc(I)cc1 (centres undefined) | 1.93 |
| O=[N+]([O-])c1cccc(CNc2ncnc3nc[nH]c23)c1 | 2.03 |
| COc1cccc2c1OP(=O)(OCC1C=CC(n3cc(C)c(=O)[nH]c3=O)O1)OC2 (centres undefined) | 0.15 |
| CCCCCCCCCCCCN=C=S | 7.13 |
| O=C1Oc2ccccc2CN1CCO[N+](=O)[O-] | 1.82 |
| COc1nc(N)nc(NC(C)(C)C)n1 | 1.93 |
| CCOC(=O)C1=C(C)NC(C)=C(C(=O)OC)C1c1cc(OC)cc(OC)c1 (centres undefined) | 4.08 |
| Cc1nc2ccccc2c(=O)n1CC(=O)N1CCCCC1 | 1.27 |
| CCOC(=O)CCCn1cnc([N+](=O)[O-])n1 | 0.42 |
| CC(C)N(CCC(C(N)=O)c1ccccc1Cl)C(C)C (centres undefined) | 2.83 |
| OCC1OC(Oc2ccc3cc(Br)ccc3c2)C(O)C(O)C1O (centres undefined) | 1.97 |
| CC(C)Oc1cccc2nc(N)nc(N)c12 | 2.05 |
| CC(C)C1(C)N=C(c2ncc3ccccc3c2C(=O)O)NC1=O (centres undefined) | 1.81 |
| O=C1CC=C2C3CC4N(CCC45c4ccccc4N1C25)C/C3=C\CO (centres undefined) | 1.37 |
| O=C1N=C(N2CCOCC2)CN1Cc1ccc(I)cc1 | 1.7 |
| O=C(O)CCCCCON=C(c1cccc(C(F)(F)F)c1)c1ccncn1 | 3.55 |
| CCC(C)C(N)C(=O)N1CCCC1C(=O)NCC(=O)NC(C(=O)O)C(C)CC (centres undefined) (H-IPGI-OH; configuration not given here) | -1.69 |
| CCCCC(O)C(CCCCOc1ccc(F)cc1)n1cncn1 (centres undefined) | 3.38 |
| CC(C)NC(=NC#N)NS(=O)(=O)c1cnccc1Nc1ccc(Cl)c(C(F)(F)F)c1 | 3.27 |

| SMILES | logP |
| --- | --- |
| CCC(C)C(N)C(=O)NC(C(=O)O)C(C)CC (stereo not drawn) (H-Ile-Ile-OH; configuration not given here) | -1.82 |
| O=C1C=C(N2CCOCC2)CN1c1ccc(Cl)cc1 | 1.9 |
| CCOP(=O)(OCC)C(C)(C)[N+]([O-])=Cc1ccncc1 | 0.32 |
| CC(=O)c1ccc(Br)cc1O | 3.15 |
| CC(C)CC(N)C(=O)NC(CC(C)C)C(=O)NC(CC(C)C)C(=O)NC(Cc1ccccc1)C(=O)O (centres undefined) (H-LLLF-OH; configuration not given here) | 0.24 |
| CC(C)NC(=NC#N)NS(=O)(=O)c1cnccc1Nc1cccc(Br)c1 | 2.27 |
| Cc1oc2nc3oc(=O)ccc3cc2c1C | 1.97 |
| CSCCC(N)C(=O)NC(Cc1c[nH]c2ccccc12)C(=O)O (centres undefined) | -1.5 |
| CC(C)(C)SSc1ncc[nH]1 | 2.56 |
| Cc1nc2ccccc2c(=O)n1CC(=O)NCc1ccco1 | 1.24 |
| Nc1nnnn1-c1ccc2ccccc2c1 | 2.08 |
| COC(=O)C(C)NP(=O)(OCC1C=CC(n2cc(C)c(=O)[nH]c2=O)O1)Oc1ccccc1Cl (centres undefined) | 1.37 |
| CCC(C)C(NC(=O)C(NC(=O)C(N)CC(C)C)C(C)O)C(=O)O (stereo not drawn) (H-Leu-Thr-Ile-OH; configuration not given here) | -2.3 |
| Cc1cc(=O)oc2c1c(C)cc1occ(C)c12 | 3.04 |
| C#C[C@]1(O)CC[C@H]2[C@@H]3CCC4=CC(=O)CC[C@@H]4[C@H]3C(=C)C[C@@]21CC | 3.16 |
| O=C(Cc1ccccc1)OC1Cc2c(O)cc(O)cc2OC1c1ccc(O)c(O)c1 (centres undefined) | 3.09 |
| OCCCCNc1ncnc2c1ncn2C1OC(CO)C(O)C1O (centres undefined) | -0.62 |
| CCC(C)C(NC(=O)C(N)Cc1ccc(O)cc1)C(=O)NC(CC(C)C)C(=O)NCC(=O)O (centres undefined) (H-YILG-OH; configuration not given here) | -1.49 |
| CC(=O)NC(CCCN(Cc1ccccc1)C(=O)N(CCCl)N=O)C(=O)NCc1ccccc1 (centres undefined) | 1.92 |
| Brc1cc(Br)c(-c2ccccc2)c(Br)c1 | 6.03 |
| O=C1c2ccccc2-c2nnc(C(F)(F)F)cc21 | 2.21 |
| C#CCOc1noc2c1CNCC2 | 0.4 |
| CC(=O)Oc1cc(OC(C)CCCc2ccccc2)cc2c1C1CC(O)CCC1C(C)N2 (centres undefined) | 5.7 |
| COc1ccc(C2=NC(C)(C(=O)O)CS2)c(O)c1 (centres undefined) | 1.7 |

| SMILES | logP |
| --- | --- |
| CC(C)Nc1ncnc2c1ncn2C1OC(CO)C(O)C1O (centres undefined) | 0.48 |
| CCCCNc1ncnc2c1ncn2C1OC(CO)C(O)C1O (centres undefined) | 1.1 |
| CCOC(=O)c1ccc(N=NN(C)C(=O)OCOC(=O)C(C)NC(C)=O)cc1 (centres undefined) | 2.73 |
| Cc1cc2c(cc(C)c3ccc(=O)oc32)o1 | 2.92 |
| CCOP(=O)(OCC)C(C)(C)[N+]([O-])=Cc1c(OC)cc(OC)cc1OC | 1.03 |
| CCCCCCCCCCCCCCc1ccccc1 | 9.95 |
| CC(C)(C)[N+]([O-])=Cc1ccc([N+](=O)[O-])cc1 | 1.4 |
| O=C1c2cc([N+](=O)[O-])ccc2OCN1CCO[N+](=O)[O-] | 1.66 |
| CC(C)(C)[N+]([O-])=Cc1ccc(Br)cc1 | 2 |
| CC(C)(C)Nc1nc(N)nc(Cl)n1 | 1.94 |
| O=C1N=C(N2CCCCC2)CN1c1ccc(Cl)cc1 | 2.3 |
| Cc1ccc(C)c(Cc2cnc[nH]2)c1 | 2.72 |
| CC(C)C1(C)N=C(c2ncc(-c3ccccc3)cc2C(=O)O)NC1=O (centres undefined) | 2.24 |
| Cc1oc2cc(C)c3ccc(=O)oc3c2c1C | 3.36 |
| CC(C)(C)Nc1nc(N)nc(O)n1 | 2.07 |
| O=S1CCCC1 | -0.96 |
| c1ccc2c(c1)OCC(c1ncc[nH]1)O2 (centres undefined) | 1.76 |
| COc1ccc(CCNCC(O)COc2ccc(-c3nc(C(N)=O)c[nH]3)cc2)cc1OC (centres undefined) | 2.3 |
| CCCc1nc(Nc2ccccc2OC)nc(N2CCOCC2)n1 | 3.59 |
| CC(C)OC(=O)C1(S(=O)(=O)c2ccc(Cl)cc2)CCCCC1 | 3.49 |
| CC(C)CC(NC(=O)C(C)N)C(=O)NC(CC(C)C)C(=O)NCC(=O)NC(Cc1ccccc1)C(=O)O (centres undefined) (H-ALLGF-OH; configuration not given here) | -0.63 |
| O=C(Nc1ccccc1C(=O)O)c1ccccc1O | 3.94 |
| Cc1ccc(CO)c(C=NNC(=O)c2ccc(O)cc2)c1O | 2.56 |

Source: the OPERA property sets (Mansouri et al. 2018)
